Like-named read-outs stand apart in the source and are kept apart here.
Assays:
[1] = CCK8 cell viability (cytotoxicity) assay; assay type: cell-based, murine; conditions: mouse, RAW264.7 cells, means ± SD (n = 3)
Protocol: The toxic effect of synthesized compounds was evaluated on RAW264.7 cells utilizing a CCK8 assay kit.
RAW264.7 cells were seeded in 96-well plates and incubated with various compounds, each at a uniform concentration of 50 μM, for 24 h. Following this incubation, CCK8 was added to the 96-well plates and incubated at 37 °C for 1 h. The control group was cultivated solely in fresh medium. The absorbance at 450 nm was quantified using an enzyme marker.

[2] = tested on: LPS-induced NO production in RAW 264.7 cells; test: LPS-induced NO production (Griess reagent); assay type: cell-based, murine; set-up: NO inhibition rate: dose or concentration left out as unconfirmed; key to Inhibition of LPS-induced NO production, result in words (na / tox): na: no activity at the concentration of 40 μM; toxicity; conditions: for NO inhibition rate / IC50: Griess reagent, means ± SD (n = 3); for IC50: Mus musculus, RAW264.7, LPS 500 ng/mL 24 h, read-out: IC50, inhibition of LPS-induced NO production; for Inhibition of LPS-induced NO production, result in words (na / tox): na at 40 μM
Protocol: Despite extensive research efforts focused on the treatment ALI, no specific drugs have been identified thus far. In the quest to discover innovative anti-inflammatory drugs for ALI treatment, we assessed the anti-inflammatory potential of pyrrolo[2,1-a]isoquinoline aryl ketones were evaluated through their capacity to suppress LPS-induced NO release in RAW264.7 cells.[21,28] Griess reagent was used to quantify the levels of LPS-induced NO release in RAW264.7 cells following treatment with the synthesized compounds.
The quantification of NO production in activated RAW264.7 cells was achieved by measuring the concentration of nitrite, which serves as a stable oxidative metabolite of NO, employing a previously established protocol.[37] RAW264.7 cells were cultured overnight in 48-well plates at a cellular density of 5 × 10^4 cells per milliliter. […] Briefly, Griess reagents I and II were mixed with 50 μL of the culture medium supernatant, and the resultant mixture was analyzed spectrophotometrically at a wavelength of 540 nm using an automated microplate reader. The NO inhibition rate was calculated using the following formula: NO inhibition rate = [(OD540 − compound OD540)/(OD540 − blank OD540)] × 100%.

PPAR-δ = tested on: PPAR-δ; set-up: method as in PMID 22489042; conditions: cited from earlier work
PPAR-α = tested on: PPAR-α; set-up: method as in PMID 22489042; conditions: cited from earlier work
PPAR-γ = tested on: PPAR-γ; set-up: method as in PMID 22489042; conditions: cited from earlier work
COX-2 = conditions: cited from earlier work
COX-1 = tested on: COX-1; set-up: method as in PMID 32358780, PMID 30243628; conditions: cited from earlier work

Structure (SMILES) | viability at 24 h, 50 µM [1] | NO inhibition rate [2] | further results
O=C(c1ccc(Br)cc1)c1ccc2c3ccccc3ccn12 [3i] | 95.9 ± 7.7% |  | 
N#Cc1ccc2c3ccccc3ccn12 [3c] | 97.1 ± 2.6% | 46.9 ± 1.8% | 
COC(=O)c1ccc2c3ccccc3ccn12 [3a] | 92.4 ± 6.3% |  | IC50 [2]: 19.9 ± 0.71 µM
COc1ccc(C(=O)c2ccc3c4ccccc4ccn23)cc1 [3e] | 88.7 ± 5.8% |  | 
O=C(c1ccccc1Cl)c1ccc2c3ccccc3ccn12 [3l] | 99.3 ± 8.8% | 38.2 ± 5.1% | 
O=C(c1cccc(Cl)c1)c1ccc2c3ccccc3ccn12 [3o] | 91.5 ± 8.5% | 39.2 ± 7.1% | 
CC(C)(C)OC(=O)c1ccc2c3ccccc3ccn12 [3b] | 95.6 ± 2.9% | 42.0 ± 4.2% | 
CC(C)(Oc1ccc(C(=O)c2ccc(Cl)cc2)cc1)C(=O)O [Fenofibric acid] |  |  | EC50 (PPAR-δ): […]; EC50 (PPAR-α): […]; EC50 (PPAR-γ): […]; IC50 (COX-2; read-out: IC50, COX-2 inhibitory activity): 0.048 µM
O=C(c1ccc(Cl)cc1)c1ccc2c3ccccc3ccn12 [3h] | 101 ± 3% | 39.6 ± 5.3% | 
O=C(c1ccccc1O)c1ccc2c3ccccc3ccn12 [3m] | 46.4 ± 6.5% |  | Inhibition of LPS-induced NO production, result in words (na / tox) [2]: tox
C=C(C)[C@@H]1CC[C@]2(C(=O)O)CC[C@]3(C)[C@H](CC[C@@H]4[C@@]5(C)CC[C@H](O)C(C)(C)[C@@H]5CC[C@]43C)[C@@H]12 [Betulinic acid, reference compound] | 85.8 ± 7.4% |  | IC50 [2]: 11.9 ± 1.3 µM
Cc1ccc(C(=O)c2ccc3c4ccccc4ccn23)cc1 [3f] | 53.6 ± 6.4% |  | Inhibition of LPS-induced NO production, result in words (na / tox) [2]: tox
O=C(c1ccccc1)c1ccc2c3ccccc3ccn12 [3d] | 96.8 ± 6.6% | 48.0 ± 1.3% | 
Cc1cccc(C(=O)c2ccc3c4ccccc4ccn23)c1 [3n] |  | 46.8 ± 3.1% | 
O=C(c1ccc(C(F)(F)F)cc1)c1ccc2c3ccccc3ccn12 [3j] | 89.9 ± 5.6% |  | 
O=C(c1ccc2ccccc2c1)c1ccc2c3ccccc3ccn12 [3p] | 93.2 ± 4.7% |  | 
CC(C(=O)O)c1cccc(C(=O)c2ccccc2)c1 (stereo not shown) [Ketoprofen] |  |  | IC50 (COX-1): 0.002 µM; IC50 (COX-2; read-out: IC50 for COX-2): 0.026 µM
